Like-named read-outs stand apart in the source and are kept apart here.
What was measured:
[1] = system: P. falciparum 3D7 (CQ-sensitive); experiment: In vitro antiplasmodial activity, 3H-hypoxanthine incorporation, strain 3D7; assay type: cell-based; conditions: Plasmodium falciparum, IC50 ± SD
Description: (§1) The following strains of Plasmodium falciparum were used in this study: F32 (Tanzania), Dd2 (SE Asia), K1 (SE Asia), FcB1 (Colombia), K14 (Cambodia) and 3D7 (Africa). […] Parasites at the ring stage (laboratory A) or asynchronous parasites (laboratory B) were grown in human A+ or O+ red blood cells at a 1.5% (laboratory A) or 2% (laboratory B) haematocrit and a 0.8–1% parasitaemia. Synchronization of the parasites was performed by sorbitol treatment.
(§2) Further dilutions were in complete culture medium. The complexes were tested for their inhibitory effect toward P. falciparum intraerythrocytic development. […] 100 μL from a culture at a 3% (laboratory A) or 4% (laboratory B) hematocrit in complete medium was added per well. […] Plates were freeze-thawed and harvested on filters. […] The percentage of growth inhibition was calculated from the parasite-associated radioactivity. 100% ^3H-hypoxanthine incorporation was determined from a control grown in the absence of drug or test compound.

[2] = system: P. falciparum Dd2; experiment: In vitro antiplasmodial activity, 3H-hypoxanthine incorporation, strain Dd2; assay type: cell-based; conditions: Plasmodium falciparum, IC50 ± SD
Description: as §1, §2

[3] = system: P. falciparum K1 (CQ-resistant); experiment: In vitro antiplasmodial activity, 3H-hypoxanthine incorporation, strain K1; assay type: cell-based; conditions: Plasmodium falciparum, IC50 ± SD
Description: as §1, §2

[4] = in vitro; conditions: for microsomal CLint at 1 μM / half-life at 1 μM: human; for microsomal CLint at 1 μM: pH 7.4
Description: The evaluation of microsomal stability was performed by Cyprotex US, LLC, Watertown, MA. […] After separation on an HILIC HPLC colum (Sepax HILIC […] 2.1 x 30 mm) using an acetonitrile-water gradient system, peaks were analyzed by mass spectrometry (MS) using ESI ionization in MRM mode. The signal was optimized for each compound by ESI positive or negative ionization mode. An MS2 scan or an SIM scan was used to optimize the fragmenter voltage and a product ion analysis was used to identify the best fragment for analysis, and the collision energy was optimized using a product ion or MRM scan. An ionization ranking was assigned indicating the compound’s ease of ionization.
A control reaction omitting NADPH was performed for each compound in order to detect any NADPH-independent degradation. Aliquots were removed at 0, 10, 20, 40, and 60 min and mixed with an equal volume of ice-cold Stop Solution (methanol containing haloperidol, diclofenac, or other internal standard). The stopped reactions were further incubated for at least 10 min at -20°C, and an additional volume of water was added. The samples were centrifuged to remove precipitated protein, and the supernatants were analyzed by LC/MS/MS to quantify the remaining parent. Data were converted to % remaining by dividing by the time zero concentration value, and fitted to a first-order decay model to determine half-life values. Intrinsic clearance values were calculated from the half-life and protein concentrations by using the equation CLint = ln 2 / t1/2 [microsomal protein].

[5] = set-up: method as in PMID 11805197; conditions: elimination of the active metabolite after AQ; cited from earlier work
[6] = system: P. falciparum FcB1 (CQ-resistant); experiment: In vitro antiplasmodial activity, 3H-hypoxanthine incorporation, strain FcB1; assay type: cell-based; conditions: Plasmodium falciparum
Description: as §1, §2
(§3) IC50 ± SD values (nM) determined from independent experiments performed in triplicate under the conditions of laboratory B (Paris).

[7] = system: P. falciparum F32 (CQ-sensitive); experiment: In vitro antiplasmodial activity, 3H-hypoxanthine incorporation, strain F32; assay type: cell-based; conditions: Plasmodium falciparum
Description: as §1, §2, §3

[8] = system: P. falciparum K14 (CQ-resistant); experiment: In vitro antiplasmodial activity, 3H-hypoxanthine incorporation, strain K14; assay type: cell-based; conditions: Plasmodium falciparum
Description: as §1, §2, §3

[9] = Cytotoxicity, MTT, L6 cells; assay type: cell-based; conditions: rat, L-6 cells, concentration inducing 50% of cell growth arrest, three days
Description: (§4) The rat L-6 and human MRC-5 cell lines were routinely grown in RPMI 1640 supplemented with 11 mM glucose, 27.5 mM NaHCO3, 100 UI/mL penicillin, 100 μg/mL streptomycin and 10% fetal calf serum (RPMI-FCS), in a 5% CO2 incubator at 37°C. For cytotoxicity assays, 100 μL per well of a 2×10^4 cells/mL suspension in RPMI-FCS were deposited in a 96-well microplate and incubated overnight in culture conditions. Then decreasing concentrations of the compounds to test were established by twofold serial dilutions in RPMI-FCS and distributed at a rate of 100 μL per well and the microplate was put back in the incubator for an additional three (L-6) or five (MRC-5) day period. Then the supernatant in each well was discarded and replaced by 100 μL of MTT 1 mg/mL in RPMI-FCS. The microplate was re-incubated in culture conditions for three hours, then 100 μL of 10% SDS was added by well. The cells were left overnight in the incubator then the OD at 540nm was measured with the Bio-Tek FL600™ microplate reader equipped with the KC4™ software. […] The selectivity of each compound to P. falciparum was assessed through the selectivity index (SI), defined as CC50 (to L6 or MRC5 cells) / IC50 (to P. falciparum).

[10] = Cytotoxicity, MTT, MRC5 cells; assay type: cell-based; conditions: human, MRC-5 cells, concentration inducing 50% of cell growth arrest, five days
Description: as §4

[11] = 3D7, laboratory A (Marseille), 5% CO2, 10% O2, 85% N2, read-out: Antiplasmodial activity, IC50, 3D7
[12] = 3D7, laboratory B (Paris), candle jar ~17% O2, 3% CO2, 80% N2, read-out: Antiplasmodial activity, IC50, 3D7
[13] = DD2, laboratory A (Marseille), 5% CO2, 10% O2, 85% N2, Dd2 CQ-resistant under these conditions, read-out: Antiplasmodial activity, IC50, Dd2
[14] = DD2, laboratory B (Paris), candle jar ~17% O2, 3% CO2, 80% N2, Dd2 CQ-sensitive under these conditions, read-out: Antiplasmodial activity, IC50, Dd2
[15] = K1, laboratory A (Marseille), 5% CO2, 10% O2, 85% N2, read-out: Antiplasmodial activity, IC50, K1
[16] = K1, laboratory B (Paris), candle jar ~17% O2, 3% CO2, 80% N2, read-out: Antiplasmodial activity, IC50, K1
[17] = FCB1, laboratory B (Paris), IC50 ± SD, read-out: Antiplasmodial activity, IC50, FcB1
[18] = F32, laboratory B (Paris), IC50 ± SD, read-out: Antiplasmodial activity, IC50, F32
[19] = laboratory B (Paris), IC50 ± SD, read-out: Antiplasmodial activity, IC50, K14
[20] = human liver microsomes, pH 7.4, NADPH-dep. t1/2, human liver microsomes, [Compd] = 1 μM, [protein] = 0.3 mg/mL, with NADPH
[21] = human liver microsomes, pH 7.4, NADPH-free t1/2, human liver microsomes, [Compd] = 1 μM, [protein] = 0.3 mg/mL, without NADPH

SMILES | IC50 [1, 11] [nM] | IC50 [1, 12] [nM] | IC50 [2, 13] [nM] | IC50 [2, 14] [nM] | IC50 [3, 15] [nM] | IC50 [3, 16] [nM] | IC50 [6, 17] [nM] | CC50 at 3 days [9] [µM] | IC50 [7, 18] [nM] | IC50 [8, 19] [nM] | microsomal CLint at 1 μM ([4]; human liver microsomes) [µL/min/mg] | half-life at 1 μM [4, 20] [min] | half-life at 1 μM [4, 21] [min] | CC50 at 5 days [10] [µM] | other results
CCN(CC)Cc1cc(Nc2ccnc3cc(Cl)ccc23)ccc1O [AQ, amodiaquine, reference compound] | 24.6 ± 3.06 | 11.9 ± 1 | 31.6 ± 7.77 | 11.3 ± 0.64 | 34.3 ± 0.58 | 9.6 ± 0.51 |  |  |  |  |  |  |  |  | microsomal CLint at 1 μM ([4]; microsomes): 431 ± 33.4 µL/min/mg; half-life at 1 μM ([4]; microsomes, pH 7.4, NADPH-dep. t1/2): 5.4 ± 0.42 min; half-life at 1 μM ([4]; microsomes, pH 7.4, NADPH-free t1/2): > 240 min; terminal half-life [5]: ~ 100 h
CCN(CC)CCCC(C)Nc1ccnc2cc(Cl)ccc12 (stereo not drawn) [CQ, chloroquine] |  |  |  |  |  |  |  |  |  |  |  |  |  |  | IC50 ([1]; 3D7, read-out: Antiplasmodial activity, IC50, 3D7, laboratory A (Marseille), 5% CO2, 10% O2, 85% N2): 17.6 ± 0.71 nM; IC50 ([1]; 3D7, read-out: Antiplasmodial activity, IC50, 3D7, laboratory B (Paris), candle jar ~17% O2, 3% CO2, 80% N2): 18 ± 12.3 nM; IC50 ([6]; FCB1, read-out: Antiplasmodial activity, IC50, FcB1): 111 ± 43 nM; IC50 ([2]; DD2, read-out: Antiplasmodial activity, IC50, Dd2, laboratory A (Marseille), 5% CO2, 10% O2, 85% N2, Dd2 CQ-resistant under these conditions): 522 ± 95.7 nM; IC50 ([2]; DD2, read-out: Antiplasmodial activity, IC50, Dd2, laboratory B (Paris), candle jar ~17% O2, 3% CO2, 80% N2, Dd2 CQ-sensitive under these conditions): 35.1 ± 12.1 nM; IC50 ([7]; F32, read-out: Antiplasmodial activity, IC50, F32): 33.9 ± 12.3 nM; IC50 ([8]; read-out: Antiplasmodial activity, IC50, K14): 103 ± 92.5 nM; IC50 ([3]; K1, read-out: Antiplasmodial activity, IC50, K1, laboratory A (Marseille), 5% CO2, 10% O2, 85% N2): 1090 ± 164 nM; IC50 ([3]; K1, read-out: Antiplasmodial activity, IC50, K1, laboratory B (Paris), candle jar ~17% O2, 3% CO2, 80% N2): 124 ± 48 nM; NADPH-dep. t1/2 ([4]; human liver microsomes, [Compd] = 1 μM, [protein] = 0.3 mg/mL, with NADPH): 133.2 ± 15.52 min; microsomal CLint at 1 μM ([4]; microsomes): 17.5 ± 2.03 µL/min/mg; half-life at 1 μM ([4]; microsomes, pH 7.4, NADPH-dep. t1/2, human liver microsomes, [Compd] = 1 μM, [protein] = 0.3 mg/mL, with NADPH): 133 ± 15.5 min; half-life at 1 μM ([4]; microsomes, pH 7.4, NADPH-free t1/2, human liver microsomes, [Compd] = 1 μM, [protein] = 0.3 mg/mL, without NADPH): > 240 min
CCN(CC)Cc1ccccc1CNc1ccnc2cc(Cl)ccc12 [Compound 1, 7-Chloro-N-(2-((diethylamino)methyl)benzyl)quinolin-4-amine] | 13.5 ± 0.71 | 21.6 ± 3.11 | 21.3 ± 2.52 | 19.4 ± 2.18 | 52.7 ± 0.99 | 14.6 ± 0.36 | 12.1 ± 1.2 | 27.7 ± 1.73 | 30 ± 15.2 | 13.5 ± 4.66 | 45.6 ± 0.12 | 50.9 ± 0.55 | > 240 | 26.4 ± 1.75 | 
CCN(CC)Cc1cccc(CNc2ccnc3cc(Cl)ccc23)c1 [Compound 2, 7-Chloro-N-(3-((diethylamino)methyl)benzyl)quinolin-4-amine] | 18.4 ± 0.66 | 17.1 ± 2.97 | 26.5 ± 5.07 | 17.1 ± 1.72 | 64.2 ± 6.16 | 12 ± 1.15 | 30.3 ± 1.7 | 20.6 ± 3.92 | 14.7 ± 0.45 | 23.6 ± 1.73 | 56.2 ± 0.55 | 41.1 ± 0.41 | > 240 | 20.3 ± 3.4 | 
CCN(CC)Cc1ccc(CNc2ccnc3cc(Cl)ccc23)cc1 [Compound 3, 7-Chloro-N-(4-((diethylamino)methyl)benzyl)quinolin-4-amine] | 17.3 ± 0.58 | 16.1 ± 2.44 | 30.5 ± 2.12 | 17.7 ± 3.78 | 60.3 ± 4.07 | 12.4 ± 0.4 | 31.5 ± 5.7 | 13.8 ± 1.9 | 24.3 ± 2.9 | 33 ± 5.76 | 51.1 ± 3.06 | 45.3 ± 1.36 | > 240 | 13 ± 2.26 | 
CCN(CC)Cc1ccc(-c2ccc(CNc3ccnc4cc(Cl)ccc34)cc2)cc1 [Compound 4, 7-Chloro-N-((4’-((diethylamino)methyl)-[1,1’-biphenyl]-4-yl)methyl)quinolin-4-amine] | 15.2 ± 1.57 | 12.9 ± 0.85 | 20.7 ± 0.2 | 14.4 ± 0.5 | 53.4 ± 2.03 | 11.8 ± 1 | 17.9 ± 1.7 | 2.8 ± 0.15 | 16.9 ± 1 |  | 466 ± 44 | ~5 | > 240 | 2.6 ± 0.12 | IC50 ([8]; under conditions A (as printed in text), read-out: IC50 against K14 strain): 7.5 nM
CCN(CC)CC1=C(CNc2ccnc3cc(Cl)ccc23)CC=CC1 [Compound 5, 7-Chloro-N-((2-((diethylamino)methyl)cyclohexa-1,4-dien-1-yl)methyl)quinolin-4-amine] |  |  | 59 ± 1.85 |  | 63.7 ± 1.46 | 20.2 ± 6.55 |  |  | 25.4 ± 5.31 | 18.7 ± 1.16 |  |  |  |  | 
